Publication PMC4965013, “Open Source Drug Discovery with the Malaria Box Compound Collection for Neglected Diseases and Beyond” (PLoS Pathogens, 2016)
Read-outs that look alike come from different tables or passages of the source. Blank lines part the entries; values can stand above or below the compound they belong to.

Key:
P. falciparum 3D7 = assay: [3H]-hypoxanthine growth inhibition, modified HCO3- or O2; type: cell-based; conditions: for IC50: Plasmodium falciparum
[1] = tested on: P. falciparum 3D7 trophozoites; assay: Metabolomic fingerprint profiling LC-MS; type: cell-based, Plasmodium falciparum; set-up: UDP-D-glucose / ADP-D-glucose: unit not given here; conditions: for Acetyllysine / N-acetyl-L-ornithine / N-carbamoyl-L-aspartate / NADPH / dAMP / dCMP / dTDP / dTMP / dTTP / dihydroorotate / orotate / DLH / DLS/SDL/SID / PD / PEE / PVNF / 3-phosphoglycerate / ADP-D-glucose / ATP / CDP / D-sedoheptulose-1/7-phosphate / FAD / GMP / NAD+ / NADP+ / Octoluse Bisphosphate / Pyroglutamic acid / UDP-D-glucose / UDP-D-glucuronate / UDP-N-acetyl-glucosamine / UDP / UMP / UTP / a-ketoglutarate / citrate/isocitrate / cytidine / dATP / dGMP/AMP / fumarate / glucose-1/6-phosphate / glycerate / guanine / guanosine / hypoxanthine / indole / inosine / nicotinate / ornithine / phosphoenolpyruvate / pyruvate / ribose-phosphate / sarcosine/alanine / sn-glycerol-3-phosphate / succinate/methylmalonic acid / uridine / xanthosine: S2 Table Metabolomics; for Acetyllysine: metabolite Acetyllysine; for N-acetyl-L-ornithine: metabolite N-acetyl-L-ornithine; for N-carbamoyl-L-aspartate: metabolite N-carbamoyl-L-aspartate; for NADPH: metabolite NADPH; for dAMP: metabolite dAMP; for dCMP: metabolite dCMP; for dTDP: metabolite dTDP; for dTMP: metabolite dTMP; for dTTP: metabolite dTTP; for dihydroorotate: metabolite dihydroorotate; for orotate: metabolite orotate; for DLH: peptide DLH; for DLS/SDL/SID: peptide DLS/SDL/SID; for PD: peptide PD; for PEE: peptide PEE; for PVNF: peptide PVNF; for 3-phosphoglycerate: metabolite 3-phosphoglycerate; for ADP-D-glucose: metabolite ADP-D-glucose; for ATP: metabolite ATP; for CDP: metabolite CDP; for CDP / D-sedoheptulose-1/7-phosphate / GMP / Octoluse Bisphosphate / UDP / UMP / UTP / citrate/isocitrate / dGMP/AMP / fumarate / glucose-1/6-phosphate / glycerate / guanine / guanosine / inosine / pyruvate / sarcosine/alanine / succinate/methylmalonic acid / uridine / xanthosine: change in metabolite level after compound treatment; for D-sedoheptulose-1/7-phosphate: metabolite D-sedoheptulose-1/7-phosphate; for FAD: metabolite FAD; for GMP: metabolite GMP; for NAD+: metabolite NAD+; for NADP+: metabolite NADP+; for Octoluse Bisphosphate: metabolite Octoluse Bisphosphate; for Pyroglutamic acid: metabolite Pyroglutamic acid; for UDP-D-glucose: metabolite UDP-D-glucose; for UDP-D-glucuronate: metabolite UDP-D-glucuronate; for UDP-N-acetyl-glucosamine: metabolite UDP-N-acetyl-glucosamine; for UDP: metabolite UDP; for UMP: metabolite UMP; for UTP: metabolite UTP; for a-ketoglutarate: metabolite a-ketoglutarate; for citrate/isocitrate: metabolite citrate/isocitrate; for cytidine: metabolite cytidine; for dATP: metabolite dATP; for dGMP/AMP: metabolite dGMP/AMP; for fumarate: metabolite fumarate; for glucose-1/6-phosphate: metabolite glucose-1/6-phosphate; for glycerate: metabolite glycerate; for guanine: metabolite guanine; for guanosine: metabolite guanosine; for hypoxanthine: metabolite hypoxanthine; for indole: metabolite indole; for inosine: metabolite inosine; for 2_3-Diphosphoglyceric acid / 4-phosphopantothenate / 6-phospho-D-gluconate / FMN / IMP / Pyrophosphate / Sedoheptoluse bisphosphate / cyclic-AMP / glutathione disulfide / lactate / myo-inositol: metabolite level change after treatment; for nicotinate: metabolite nicotinate; for ornithine: metabolite ornithine; for phosphoenolpyruvate: metabolite phosphoenolpyruvate; for pyruvate: metabolite pyruvate; for ribose-phosphate: metabolite ribose-phosphate; for sarcosine/alanine: metabolite sarcosine/alanine; for sn-glycerol-3-phosphate: metabolite sn-glycerol-3-phosphate; for succinate/methylmalonic acid: metabolite succinate/methylmalonic acid; for uridine: metabolite uridine; for xanthosine: metabolite xanthosine
P. falciparum = assay: EC50 listed in S2 Table Metabolomics (used to set the concentration tested); type: cell-based; conditions: Plasmodium falciparum; EC50 used for Factor_XEC50 in metabolomics; read-out: EC50_nM
[2] = 3D7, read-out: P. falciparum 3D7 IC50 1% O2, 1% O2 hypoxia
[3] = 3D7, read-out: P. falciparum 3D7 IC50 5% O2

- EC50 (P. falciparum): 22.6 nM
Structure (SMILES): Oc1ccccc1CNCC12CC3CC(CC(C3)C1)C2 [MMV020788]
- fold change (IC50normal/ IC50hypoxia) (P. falciparum 3D7): 2.2
- IC50 (P. falciparum 3D7; [2]): 63 nM
- IC50 (P. falciparum 3D7; [3]): 136 nM
- Acetyllysine [1]: -2.885
- N-acetyl-L-ornithine [1]: -2.954
- N-carbamoyl-L-aspartate [1]: -1.526
- NADPH [1]: 0.03625
- dAMP [1]: 0.309
- dCMP [1]: -0.3685
- dTDP [1]: -0.06212
- dTMP [1]: -0.1581
- dTTP [1]: -0.254
- dihydroorotate [1]: -1.002
- orotate [1]: -1.435
- DLH [1]: -2.982
- DLS/SDL/SID [1]: -2.352
- PD [1]: -3.15
- PEE [1]: -2.856
- PVNF [1]: -2.845
- 3-phosphoglycerate [1]: 0.739
- ADP-D-glucose [1]: -0.1615
- ATP [1]: -0.008574
- CDP [1]: 0.1968
- D-sedoheptulose-1/7-phosphate [1]: -0.6783
- FAD [1]: -0.02526
- GMP [1]: -0.06975
- NAD+ [1]: -0.1588
- NADP+ [1]: -0.008021
- Octoluse Bisphosphate [1]: -0.4633
- Pyroglutamic acid [1]: -0.07383
- UDP-D-glucose [1]: 0.01367
- UDP-D-glucuronate [1]: -0.09612
- UDP-N-acetyl-glucosamine [1]: -0.01836
- UDP [1]: -0.3321
- UMP [1]: -0.241
- UTP [1]: -0.2582
- a-ketoglutarate [1]: -0.5092
- citrate/isocitrate [1]: -0.2786
- cytidine [1]: 0.02539
- dATP [1]: -0.1887
- dGMP/AMP [1]: 0.3187
- fumarate [1]: -0.7339
- glucose-1/6-phosphate [1]: -0.008522
- glycerate [1]: -0.4973
- guanine [1]: -0.3533
- guanosine [1]: -0.149
- hypoxanthine [1]: -0.5956
- indole [1]: -0.4443
- inosine [1]: -0.3499
- 2_3-Diphosphoglyceric acid [1]: 0.3339
- 4-phosphopantothenate [1]: -0.308
- 6-phospho-D-gluconate [1]: 0.001521
- FMN [1]: -0.2331
- IMP [1]: -0.5843
- Pyrophosphate [1]: 0.1188
- Sedoheptoluse bisphosphate [1]: -0.1032
- cyclic-AMP [1]: -0.6828
- glutathione disulfide [1]: -0.3605
- lactate [1]: -0.4043
- myo-inositol [1]: -0.5298
- nicotinate [1]: -0.1476
- ornithine [1]: -0.2765
- phosphoenolpyruvate [1]: 0.5824
- pyruvate [1]: 0.6752
- ribose-phosphate [1]: 0.658
- sarcosine/alanine [1]: -1.087
- sn-glycerol-3-phosphate [1]: 0.6534
- succinate/methylmalonic acid [1]: 0.06183
- uridine [1]: -0.2427
- xanthosine [1]: -0.4659

- EC50 (P. falciparum): 82.2 nM
Structure (SMILES): CNCCCNc1ccnc2cc(Cl)ccc12 [MMV020500]
- fold change (IC50reduced/IC50normal) (P. falciparum 3D7): 3.9
- IC50 (P. falciparum 3D7; 3D7, read-out: P. falciparum 3D7 IC50 HCO3- (2g/L), standard media): 40 nM
- IC50 (P. falciparum 3D7; 3D7, HCO3- reduced media, read-out: P. falciparum 3D7 IC50 HCO3- reduced): 155 nM
- Acetyllysine [1]: -2.213
- N-acetyl-L-ornithine [1]: -0.8185
- N-carbamoyl-L-aspartate [1]: 0.6081
- NADPH [1]: 0.8295
- dAMP [1]: 1.814
- dCMP [1]: 0.8961
- dTDP [1]: 0.7101
- dTMP [1]: 2.186
- dTTP [1]: -0.2992
- dihydroorotate [1]: 0.1598
- orotate [1]: 0.0865
- DLH [1]: -2.137
- DLS/SDL/SID [1]: -0.7574
- PD [1]: -1.597
- PEE [1]: -0.2916
- PVNF [1]: -1.612
- 3-phosphoglycerate [1]: 0.07452
- ADP-D-glucose [1]: -0.08737
- ATP [1]: -0.9785
- CDP [1]: 0.5532
- D-sedoheptulose-1/7-phosphate [1]: 1.176
- FAD [1]: -0.249
- GMP [1]: 1.138
- NAD+ [1]: 0.8214
- NADP+ [1]: -0.06525
- Octoluse Bisphosphate [1]: -0.4524
- Pyroglutamic acid [1]: 0.1099
- UDP-D-glucose [1]: -0.02951
- UDP-D-glucuronate [1]: -0.3318
- UDP-N-acetyl-glucosamine [1]: 0.05445
- UDP [1]: 0.8779
- UMP [1]: 0.5345
- UTP [1]: -0.9493
- a-ketoglutarate [1]: 0.1415
- citrate/isocitrate [1]: -0.9893
- cytidine [1]: -0.1492
- dATP [1]: -0.4735
- dGMP/AMP [1]: 1.367
- fumarate [1]: -0.1707
- glucose-1/6-phosphate [1]: -0.009969
- glycerate [1]: -0.6605
- guanine [1]: 0.2615
- guanosine [1]: -0.1451
- hypoxanthine [1]: -0.2256
- indole [1]: -0.03127
- inosine [1]: 0.04049
- 2_3-Diphosphoglyceric acid [1]: -0.286
- 4-phosphopantothenate [1]: 0.7597
- 6-phospho-D-gluconate [1]: 0.1729
- FMN [1]: 0.009843
- IMP [1]: 0.8224
- Pyrophosphate [1]: -0.4794
- Sedoheptoluse bisphosphate [1]: -0.0186
- cyclic-AMP [1]: 0.9961
- glutathione disulfide [1]: -0.1428
- lactate [1]: -0.3926
- myo-inositol [1]: -0.6279
- nicotinate [1]: 0.7754
- ornithine [1]: -0.4966
- phosphoenolpyruvate [1]: 0.07414
- pyruvate [1]: -0.1857
- ribose-phosphate [1]: -0.6716
- sarcosine/alanine [1]: -0.5483
- sn-glycerol-3-phosphate [1]: -0.4228
- succinate/methylmalonic acid [1]: 0.4498
- uridine [1]: -0.2827
- xanthosine [1]: -0.8962

Structure (SMILES): CCC(c1ccccc1)c1nn2c(-c3cccs3)nnc2s1 (stereo not drawn) [MMV665876]
- fold change (IC50normal/ IC50hypoxia) (P. falciparum 3D7): 6.3
- IC50 (P. falciparum 3D7; [2]): 66 nM
- IC50 (P. falciparum 3D7; [3]): 415 nM
- Acetyllysine [1]: 0.283
- N-acetyl-L-ornithine [1]: 0.02574
- N-carbamoyl-L-aspartate [1]: 2.073
- NADPH [1]: -0.7617
- dAMP [1]: 0.5954
- dCMP [1]: -0.9145
- dTDP [1]: -1.527
- dTMP [1]: -1.62
- dTTP [1]: -1.561
- dihydroorotate [1]: 2.966
- orotate [1]: -1.924
- DLH [1]: -0.4979
- DLS/SDL/SID [1]: -0.4746
- PD [1]: 0.3937
- PEE [1]: -0.2764
- PVNF [1]: -2.041
- 3-phosphoglycerate [1]: -0.3031
- ADP-D-glucose [1]: -0.09411
- ATP [1]: -0.3796
- CDP [1]: -0.8385
- D-sedoheptulose-1/7-phosphate [1]: 0.09562
- FAD [1]: 0.1414
- GMP [1]: -0.3833
- NAD+ [1]: -0.3556
- NADP+ [1]: -0.2262
- Octoluse Bisphosphate [1]: -0.1952
- Pyroglutamic acid [1]: -0.02059
- UDP-D-glucose [1]: -0.01878
- UDP-D-glucuronate [1]: -0.4807
- UDP-N-acetyl-glucosamine [1]: -0.2752
- UDP [1]: -1.799
- UMP [1]: -3.164
- UTP [1]: -2.138
- a-ketoglutarate [1]: -0.08894
- citrate/isocitrate [1]: -0.02094
- cytidine [1]: 0.3021
- dATP [1]: 0.315
- dGMP/AMP [1]: 0.04047
- fumarate [1]: 0.2534
- glucose-1/6-phosphate [1]: -0.2061
- glycerate [1]: 0.1397
- guanine [1]: 0.4421
- guanosine [1]: 0.6466
- hypoxanthine [1]: -0.006623
- indole [1]: 0.04311
- inosine [1]: 0.2618
- 2_3-Diphosphoglyceric acid [1]: -0.3467
- 4-phosphopantothenate [1]: -0.1285
- 6-phospho-D-gluconate [1]: 0.112
- FMN [1]: -0.3509
- IMP [1]: 0.3458
- Pyrophosphate [1]: -0.3973
- Sedoheptoluse bisphosphate [1]: 0.1676
- cyclic-AMP [1]: -0.04329
- glutathione disulfide [1]: 0.137
- lactate [1]: -0.1203
- myo-inositol [1]: 0.267
- nicotinate [1]: 0.1101
- ornithine [1]: 0.02403
- phosphoenolpyruvate [1]: -0.2926
- pyruvate [1]: 0.1322
- ribose-phosphate [1]: -0.01159
- sarcosine/alanine [1]: 0.3044
- sn-glycerol-3-phosphate [1]: -0.401
- succinate/methylmalonic acid [1]: 0.1519
- uridine [1]: -0.6108
- xanthosine [1]: 0.3254
- EC50 (P. falciparum): 259 nM
